The term Ki denotes the equilibrium dissociation constant of an inhibitor or competing ligand from its target. A word on the melting point: it is the temperature of the solid-liquid transition. What is called IC50 is the concentration that gives 50% inhibition. In general, Kd refers to the concentration at which binding is half-saturated.

The values below come from article PMC8071534, “Discovery of Potential, Dual-Active Histamine H3 Receptor Ligands with Combined Antioxidant Properties” (Molecules, 2021).

Data set [1] deals with T1, human recombinant histamine H3R stably expressed in HEK-293 cells (Homo sapiens, UniProt Q9Y5N1).
T1 construct: HEK-293 cells stably expressing the recombinant full length hH3R; expressed in transfected cells; crude membrane preparations
T1 sequence (Q9Y5N1 whole entry): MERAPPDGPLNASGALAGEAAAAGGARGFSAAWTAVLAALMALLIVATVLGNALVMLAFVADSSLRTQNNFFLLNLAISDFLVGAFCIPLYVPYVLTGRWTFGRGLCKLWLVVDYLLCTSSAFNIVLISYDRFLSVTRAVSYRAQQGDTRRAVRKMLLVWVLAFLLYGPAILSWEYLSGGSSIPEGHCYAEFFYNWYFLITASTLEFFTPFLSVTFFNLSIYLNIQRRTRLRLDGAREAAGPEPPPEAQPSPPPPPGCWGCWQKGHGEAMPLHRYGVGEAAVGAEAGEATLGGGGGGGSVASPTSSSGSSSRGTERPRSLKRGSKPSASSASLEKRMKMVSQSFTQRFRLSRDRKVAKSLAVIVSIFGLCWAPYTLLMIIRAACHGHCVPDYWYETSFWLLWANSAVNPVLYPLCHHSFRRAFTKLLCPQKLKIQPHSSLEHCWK
As to the kind of experiment: [3H]Nα-methylhistamine hH3R displacement (radioligand depletion) binding assay. The following applies: mean [95% confidence interval]. The text has this:
Unbound radioligand was removed by three washing steps with ice-cold water.

Data set [2] can be described thus: DPPH free radical scavenging assay. Conditions: for DPPH Assay (λ = 517 nm) Absorbance Decrease in 10^−4 mol/L Concentration [%] Mean ± SEM: 30 min incubation, vs solvent + reaction mixture blank. As for the experimental part: (§1) In order to determine the possible antioxidant properties, selected compounds were tested in 2,2-diphenyl-1-picrylhydrazyl (DPPH) and ferric reducing antioxidant power (FRAP) assay with ascorbic acid as a reference compound (Table 2). For details, please refer to the Materials and Methods Section. Graphical representation of tests results can be found in Supplementary Material.
(§2) Antioxidant properties of compounds were tested in vitro in two different assays: the 2,2-diphenyl-1-picrylhydrazyl (DPPH) assay and the FeCl3 reduction activity assay (FRAP, ferric reducing antioxidant power). The tested compounds and ascorbic acid were dissolved in DMSO at the 10^−2 mol/L concentration, and in ethanol at the concentration of 10^−4 mol/L respectively. Moreover, 30% and 50% ascorbic acid activity cut-off for DPPH and FRAP assays respectively were set ad hoc.
DPPH is a molecule containing a stable free radical. The reduction of DPPH (purple) in ethanol solution takes place in the presence of a hydrogen-donating antioxidant due to the formation of the non-radical form of DPPH-H (yellow). This transformation results in color change from purple to yellow, which can be measured spectrophotometrically. Thus, the decrease in absorbance is proportional to the decrease in concentration of DPPH (free radical) and discoloration of reaction mixture indicates the scavenging of free radicals by a tested antioxidant.
In order to determine antioxidant capacity, 20 μL of the compound solutions (dissolved in 96% ethanol) was mixed with 180 μL of 0.3 mM ethanolic DPPH solution. The change in the absorbance was detected at 517 nm after 30 min of incubation. Results were expressed as percentage decrease in absorbance of the tested sample, compared to the sample containing the solvent + reaction mixture (blank with maximum concentration of the DPPH radical). L-ascorbic acid was used as a reference compound. Calculations were made using MS Excel, from the proportion where the change of absorbance in the vitamin C (vit. C) group was treated as 100%, according to Equation (1):(1) % activity of Vit.C=ΔAb×100/ΔAVit. C
Calculation of % Vit. C activity: ΔAb -the change in the absorbance of the test sample and ΔAVit. C is change in the absorbance of reference sample, or with vit. C.
(Loss of DPPH colour is used to gauge radical scavenging.)

A short description of data set [3]: FRAP (ferric reducing antioxidant power) assay. The following applies: 10 min incubation, vs sample containing solvent. The protocol: as §1, §2
A modified method of Benzie and Strain [38] was adopted for the FRAP assay. The stock solutions included 300 mM acetate buffer (3.1 g of C2H3NaO2 × 3H2O and 16 mL of C2H4O2), pH 3.6, 10 mM TPTZ (2,4,6-tripyridyl-s-triazine) solution in 40 mM HCl, and 20 mM FeCl3 × 6H2O solution. The working solution was prepared by mixing 10 parts of acetate buffer, 1 part of TPTZ solution, and 1 part of FeCl3 × 6H2O solution. A portion of 180 μL of the FRAP solution was mixed with 20 μL of the tested compound solution and incubated at room temperature for 10 min in the dark. Readings of the color product (ferrous tripyridyl triazine complex) were then taken at 593 nm against ethanol. Results are expressed as an increase in absorbance of the test sample compared to a sample containing the solvent. L-ascorbic acid was used as reference compound.

The next data set has as its target hH3R. Conditions: reference ligands, Figure 1; cited from earlier work.
A further data set concerns the target hσ1R. The following applies: Figure 1; cited from earlier work.
The target of another data set is rσ2R. Conditions: Figure 1; cited from earlier work.
The next data set has as its target rVAChT. The following applies: Figure 1; cited from earlier work.
The subject of another data set is hBuChE. The following applies: Figure 1; cited from earlier work.
The next data set concerns the target rH3R. The following applies: Figure 1; cited from earlier work.
Data set [4] has as its target T1, human recombinant histamine H3R stably expressed in HEK-293 cells. Also noted: method as in PMID 21237145, PMID 29960729. The following applies: radioligand of the binding assay; read-out: KD of the radioligand at hH3R; cited from earlier work.
The mark [5] stands for this setting: [3H]Nα-methylhistamine displacement, HEK-293 membranes, read-out: hH3R Ki [nM] x¯ [CI 95%].
Where [6] appears, read: hH3R Ki [nM] x¯ [CI 95%], values obtained using 0.025% HCl in binding buffer.

Several values for one entry are separate records, joined by “and”; a condition that tells them apart may be missing. Identical values can stand only once. Like-named read-outs stand apart in the source and are kept apart here.

In the case of `CC(=O)c1ccc(N2CCN(CCCOc3ccc(C(=O)c4ccc(Cl)cc4)cc3)CC2)cc1` [Compound 11, 1-(4-(4-(3-(4-(4-Chlorobenzoyl)phenoxy)propyl)piperazin-1-yl)phenyl)ethan-1-one], the melting point is 180.6 to 183.4 °C. In addition, in data set [1] (setting [5]), the Ki is above 1000 nM. In addition, the “DPPH Assay (λ = 517 nm) Absorbance Decrease in 10^−4 mol/L Concentration [%] Mean ± SEM” value in data set [2] is recorded as 3.33 ± 0.45%. Moreover, the “FRAP Assay (λ = 593 nm) Absorbance Increase in 10^−4 mol/L Concentration [%] Mean ± SEM” value in [3] is listed as 3.34 ± 0.22%.

As for `CC(=O)c1ccc(N2CCN(CCCOc3ccc(C(=O)c4ccc(F)cc4)cc3)CC2)cc1` [Compound 12, 1-(4-(4-(3-(4-(4-Fluorobenzoyl)phenoxy)propyl)piperazin-1-yl)phenyl)ethan-1-one], the melting point fell in the range of 162 to 163.6 °C. For the same compound, the Ki in [1] (setting [5]) was found to be 1010 nM. Besides, the “DPPH Assay (λ = 517 nm) Absorbance Decrease in 10^−4 mol/L Concentration [%] Mean ± SEM” value in data set [2] is recorded as 4.42 ± 0.33%. The “FRAP Assay (λ = 593 nm) Absorbance Increase in 10^−4 mol/L Concentration [%] Mean ± SEM” value in [3] is on record as 2.70 ± 1.15%.

Turning to `O=C(c1ccc(Cl)cc1)c1ccc(OCCCN2CCN(c3ccc([N+](=O)[O-])cc3)CC2)cc1` [Compound 14, (4-Chlorophenyl)(4-(3-(4-(4-nitrophenyl)piperazin-1-yl)propoxy)phenyl)methanone], the melting point lay within 154.5 to 155.8 °C. The inhibition constant Ki in [1] (setting [5]) was 622 nM. Moreover, the “DPPH Assay (λ = 517 nm) Absorbance Decrease in 10^−4 mol/L Concentration [%] Mean ± SEM” value in [2] came to 6.31 ± 1.14%. For the same compound, the “FRAP Assay (λ = 593 nm) Absorbance Increase in 10^−4 mol/L Concentration [%] Mean ± SEM” value in [3] stood at 0.22 ± 0.16%.

Take `COc1cccc(N2CCN(CCCOc3ccc(C(=O)c4ccccc4)cc3)CC2)c1.O=C(O)C(=O)O` [Compound 16, (4-(3-(4-(3-Methoxyphenyl)piperazin-1-yl)propoxy)phenyl)(phenyl)methanone hydrogen oxalate]: the melting point is 143.6 to 146.1 °C. In [1] (setting [6]), the inhibition constant Ki is 592 nM. In [2], the “DPPH Assay (λ = 517 nm) Absorbance Decrease in 10^−4 mol/L Concentration [%] Mean ± SEM” value is 12.37 ± 1.31%. Further, the “DPPH assay: % of ascorbic acid activity” value in data set [2] (compound 10^−4 mol/L vs ascorbic acid 10^−4 mol/L, calculated from Table 2) was 60.28% and 50–60%. Moreover, the “FRAP Assay (λ = 593 nm) Absorbance Increase in 10^−4 mol/L Concentration [%] Mean ± SEM” value in data set [3] stood at 32.91 ± 0.81%.

`COc1cccc(N2CCN(CCCOc3ccc(C(=O)c4ccc(Cl)cc4)cc3)CC2)c1.O=C(O)C(=O)O` [Compound 17, (4-Chlorophenyl)(4-(3-(4-(3-methoxyphenyl)piperazin-1-yl)propoxy)phenyl)methanone hydrogen oxalate]: the melting point is 100.2 to 102.4 °C. For the same compound, the inhibitory constant (Ki) in data set [1] (setting [6]) was 518 nM and ~500 nM. Besides, the “DPPH Assay (λ = 517 nm) Absorbance Decrease in 10^−4 mol/L Concentration [%] Mean ± SEM” value in data set [2] was 4.88 ± 0.18%. Moreover, the “FRAP Assay (λ = 593 nm) Absorbance Increase in 10^−4 mol/L Concentration [%] Mean ± SEM” value in [3] worked out at 40.86 ± 0.98%.

The compound `COc1cccc(N2CCN(CCCOc3ccc(C(=O)c4ccc(F)cc4)cc3)CC2)c1.O=C(O)C(=O)O` [Compound 18, (4-Fluorophenyl)(4-(3-(4-(3-methoxyphenyl)piperazin-1-yl)propoxy)phenyl)methanone hydrogen oxalate] displayed a melting point of 127.4 to 129.7 °C. In addition, the Ki in [1] (hH3R Ki [nM] x¯ [CI 95%], [3H]Nα-methylhistamine displacement, HEK-293 membranes) came out at 715 nM. Also, the “DPPH Assay (λ = 517 nm) Absorbance Decrease in 10^−4 mol/L Concentration [%] Mean ± SEM” value in [2] is reported as 6.35 ± 0.55%. Further, in data set [3], the “FRAP Assay (λ = 593 nm) Absorbance Increase in 10^−4 mol/L Concentration [%] Mean ± SEM” value is listed as 29.73 ± 0.39%.

On to `C#CCN(C)Cc1cc2cc(OCCCN3CCCCC3)ccc2n1C` [Contilisant], for which the Ki was 10.8 nM on hH3R, 65.2 nM on hσ1R, 326 nM on rσ2R and 46.3 nM on rVAChT. For the same compound, in the data set on hBuChE, the IC50 was 1690 nM.

Regarding `Cn1nc(N2CCC(OC(=O)N3CCN(C4CCC4)CC3)CC2)ccc1=O` [LML134], on hH3R, the Ki is 12 nM.

Turning to `Clc1ccc(CCCOCCCN2CCCCC2)cc1` [Pitolisant, pitolisant], the Ki on rH3R was 17 nM.

In the case of `CNCCc1cnc[nH]1` [[^3H]N^α-methylhistamine], the dissociation constant Kd in data set [4] is 3.08 nM.
